Experimental data as given in US9663536B2, “Inhibitors of human immunodeficiency virus replication” (priority 2013, dated 2017).
Like-named read-outs stand apart in the source and are kept apart here.

Experiments:
[1] = from C=CCCc1ccccc1Cc1cnc(-c2cc3nc(C)c([C@H](OC(C)(C)C)C(=O)OCC)c(N4CCC(C)(OCC=C)CC4)n3n2)s1, rcm bond, Hoveyda-Grubbs II (7 mol%), DCE, 3.67 mM, 70.0 °C, 2.0 h
[2] = rcm bond, 20-membered ring, Hoveyda-Grubbs II (10 mol%), DCE, 70.0 °C
[3] = system: recombinant NL-Rluc virus; test: Inhibition of HIV replication (NL-Rluc virus in MT-2 cells, luciferase readout); assay type: cell-based; conditions: Human immunodeficiency virus 1, MT2, 120 h

SMILES: CCOC(=O)[C@@H](OC(C)(C)C)c1c(C)nc2cc3nn2c1N1CCC(C)(CC1)OCC=CCCc1ccccc1Cc1cnc-3s1
- ring closure, yield after HPLC ([1]; 19-membered ring): 8.65%
- ring closure, yield after HPLC ([1]; 20-membered ring): 19.7%

SMILES: CCOC(=O)[C@@H](OC(C)(C)C)c1c(C)nc2cc3nn2c1N1CCC(C)(CC1)OCC=CCOc1ccccc1Cc1cnc-3s1
- ring closure, isolated yield ([2]; from C=CCOc1ccccc1Cc1cnc(-c2cc3nc(C)c([C@H](OC(C)(C)C)C(=O)OCC)c(N4CCC(C)(OCC=C)CC4)n3n2)s1, 1.64 mM, 2.0 h): 76%

SMILES: Cc1nc2cc3nn2c(c1[C@H](OC(C)(C)C)C(=O)O)N1CCC(C)(CC/C=C/CCOc2ccccc2Cc2cnn-3c2)CC1 [Example 34, (2S)-2-(tert-Butoxy)-2-[(24E)-4,28-dimethyl-21-oxa-1,5,7,8,10,11-hexaazahexacyclo[26.2.2.1^6,9.1^10,13.0^2,7.0^15,20]tetratriaconta-2,4,6(34),8,11,13(33),15(20),16,18,24-decaen-3-yl]acetic acid]
- EC50 [3]: 8 nM

SMILES: Cc1nc2cc3nn2c(c1[C@H](OC(C)(C)C)C(=O)O)N1CCC(C)(C/C=C/CCc2cc(F)ccc2Cc2cnc-3s2)CC1 (single isomer, unassigned) [Example 18]
- EC50 [3]: 11 nM

SMILES: Cc1nc2cc3nn2c(c1[C@H](OC(C)(C)C)C(=O)O)N1CCC(C)(CC/C=C/COc2ccccc2Cc2cnc-3s2)CC1 [Example 24, (2S)-2-(tert-Butoxy)-2-[(23E)-4,27-dimethyl-21-oxa-32-thia-1,5,7,8,11-pentaazahexacyclo[25.2.2.1^6,9.1^10,13.0^2,7.0^15,20]tritriaconta-2,4,6(33),8,10,12,15(20),16,18,23-decaen-3-yl]acetic Acid]
- EC50 [3]: 11 nM

SMILES: Cc1nc2cc3nn2c(c1[C@H](OC(C)(C)C)C(=O)O)N1CCC(C)(/C=C/CCCCc2ccccc2Cc2cnc-3s2)CC1 [Example 13, (2S)-2-(tert-Butoxy)-2-[(25E)-4,27-dimethyl-32-thia-1,5,7,8,11-pentaazahexacyclo[25.2.2.1^6,9.1^10,13.0^2,7.0^15,20]tritriaconta-2,4,6(33),8,10,12,15(20),16,18,25-decaen-3-yl]acetic acid]
- EC50 [3]: 12 nM

SMILES: COC(=O)[C@@H](OC(C)(C)C)c1c(C)nc2cc3nn2c1N1CCC(C)(CC1)OC/C=C/COc1ccccc1Cc1cnn-3c1
- ring closure, isolated yield ([2]; from C=CCOc1ccccc1Cc1cnn(-c2cc3nc(C)c([C@H](OC(C)(C)C)C(=O)OC)c(N4CCC(C)(OCC=C)CC4)n3n2)c1, 1.2 mM, 3.0 h): 74%

SMILES: Cc1nc2cc3nn2c(c1[C@H](OC(C)(C)C)C(=O)O)N1CCC(C)(CC1)OC/C=C/CCOc1ccccc1Cc1cnn-3c1 [Example 31, (2S)-2-(tert-Butoxy)-2-[(24E)-4,28-dimethyl-21,27-dioxa-1,5,7,8,10,11-hexaazahexacyclo[26.2.2.1^6,9.1^10,13.0^2,7.0^15,20]tetratriaconta-2,4,6(34),8,11,13(33),15(20),16,18,24-decaen-3-yl]acetic acid]
- EC50 [3]: 2 nM

SMILES: Cc1nc2cc3nn2c(c1[C@H](OC(C)(C)C)C(=O)O)N1CCC(C)(CC1)OC/C=C\CCc1ccccc1Cc1cnc-3s1 (single isomer, unassigned) [Example 2]
- EC50 [3]: 2 nM

SMILES: Cc1nc2cc3nn2c(c1[C@H](OC(C)(C)C)C(=O)O)N1CCC(C)(CC1)OCCCCOc1c(F)cccc1Cc1cnn-3c1 [Example 28, (2S)-2-(tert-Butoxy)-2-{19-fluoro-4,27-dimethyl-21,26-dioxa-1,5,7,8,10,11-hexaazahexacyclo[25.2.2.1^6,9.1^10,13.0^2,7.0^15,20]tritriaconta-2,4,6(33),8,11,13(32),15(20),16,18-nonaen-3-yl}acetic acid]
- EC50 [3]: 11 nM

SMILES: Cc1nc2cc3nn2c(c1[C@H](OC(C)(C)C)C(=O)O)N1CCC(C)(CC1)OC/C=C/COc1c(F)cccc1Cc1cnn-3c1 [Example 27, (2S)-2-(tert-Butoxy)-2-[(23E)-19-fluoro-4,27-dimethyl-21,26-dioxa-1,5,7,8,10,11-hexaazahexacyclo[25.2.2.1^6,9.1^10,13.0^2,7.0^15,20]tritriaconta-2,4,6(33),8,11,13(32),15(20),16,18,23-decaen-3-yl]acetic acid]
- EC50 [3]: 48 nM

SMILES: Cc1nc2cc3nn2c(c1[C@H](OC(C)(C)C)C(=O)O)N1CCC(C)(CC/C=C/CCc2cc(F)ccc2Cc2cnc-3s2)CC1 (single isomer, unassigned) [Example 17]
- EC50 [3]: 18 nM

SMILES: Cc1nc2cc3nn2c(c1[C@H](OC(C)(C)C)C(=O)O)N1CCC(C)(CC/C=C\C[C@@H](C)Oc2cc(F)ccc2Cc2cnc-3s2)CC1 [Example 20, (2S)-2-(tert-Butoxy)-2-[(22R,24Z)-18-fluoro-4,22,28-trimethyl-21-oxa-33-thia-1,5,7,8,11-pentaazahexacyclo[26.2.2.1^6,9.1^10,13.0^2,7.0^15,20]tetratriaconta-2,4,6(34),8,10,12,15(20),16,18,24-decaen-3-yl]acetic acid]
- EC50 [3]: 32 nM

SMILES: Cc1nc2cc3nn2c(c1[C@H](OC(C)(C)C)C(=O)O)N1CCC(C)(CC1)OCCCCOc1ccccc1Cc1cnc-3o1 [Example 6, (2S)-2-(tert-Butoxy)-2-{4,27-dimethyl-21,26,32-trioxa-1,5,7,8,11-pentaazahexacyclo[25.2.2.1^6,9.1^10,13.0^2,7.0^15,20]tritriaconta-2,4,6(33),8,10,12,15(20),16,18-nonaen-3-yl}acetic acid]
- EC50 [3]: 4 nM

SMILES: Cc1nc2cc3nn2c(c1[C@H](OC(C)(C)C)C(=O)O)N1CCC(C)(CC1)OCCCCOc1ccc(F)cc1Cc1cnn-3c1 [Example 30, (2S)-2-(tert-Butoxy)-2-{17-fluoro-4,27-dimethyl-21,26-dioxa-1,5,7,8,10,11-hexaazahexacyclo[25.2.2.1^6,9.1^10,13.0^2,7.0^15,20]tritriaconta-2,4,6(33),8,11,13(32),15(20),16,18-nonaen-3-yl}acetic acid]
- EC50 [3]: 2 nM

SMILES: Cc1nc2cc3nn2c(c1[C@H](OC(C)(C)C)C(=O)O)N1CCC(C)(CC1)OCCCCCOc1ccccc1Cc1cnn-3c1 [Example 33, (2S)-2-(tert-Butoxy)-2-{4,28-dimethyl-21,27-dioxa-1,5,7,8,10,11-hexaazahexacyclo[26.2.2.1^6,9.1^10,13.0^2,7.1^15,20]tetratriaconta-2,4,6(34),8,11,13 (33), 15 (20), 16,18-nonaen-3-yl}acetic acid]
- EC50 [3]: 2 nM

SMILES: COC(=O)Cc1c(C)nc2cc3nn2c1N1CCC(C)(CC/C=C/COc2ccccc2Cn2cc-3cn2)CC1
- ring closure, isolated yield ([2]; from C=CCCC1(C)CCN(c2c(CC(=O)OC)c(C)nc3cc(-c4cnn(Cc5ccccc5OCC=C)c4)nn23)CC1, 5.02 mM, 1.0 h): 63%
